{"source": "paper PMC4578888", "about": "“The Validation of Nematode-Specific Acetylcholine-Gated Chloride Channels as Potential Anthelmintic Drug Targets” (PLoS ONE, 2015)", "molecular_target": "T1, AVR-15 (glutamate-gated chloride channel subunit) (Caenorhabditis elegans, UniProt O17548)", "T1 construct": "homomeric AVR-15, untagged and with a fluorescent protein tag in the intracellular loop, expressed in Xenopus laevis oocytes", "T1 sequence (O17548 21-478)": "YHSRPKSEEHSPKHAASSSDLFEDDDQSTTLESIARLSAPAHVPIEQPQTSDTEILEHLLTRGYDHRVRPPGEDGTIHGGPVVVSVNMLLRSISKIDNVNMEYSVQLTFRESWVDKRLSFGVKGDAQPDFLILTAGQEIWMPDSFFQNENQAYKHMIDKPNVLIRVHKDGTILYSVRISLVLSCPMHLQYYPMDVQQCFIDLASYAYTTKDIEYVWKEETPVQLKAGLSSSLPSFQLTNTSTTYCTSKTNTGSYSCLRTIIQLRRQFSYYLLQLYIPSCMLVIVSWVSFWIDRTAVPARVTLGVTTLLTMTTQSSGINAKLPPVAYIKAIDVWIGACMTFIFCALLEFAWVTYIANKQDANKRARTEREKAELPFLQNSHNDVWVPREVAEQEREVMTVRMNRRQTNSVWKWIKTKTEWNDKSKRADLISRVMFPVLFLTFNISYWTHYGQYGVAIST", "assay": "two-electrode voltage clamp in Xenopus oocytes, dose–response curve", "format": "cell-based"}
{"smiles": "N[C@@H](CCC(=O)O)C(=O)O", "note": "[glutamate]", "values": [{"measurement": "two-electrode voltage clamp in Xenopus oocytes, dose-response curve", "value": "Dose–response curve with the normalized maximal response on the y-axis plotted against the glutamate concentration"}]}
